Each block holds one compound with its values, some of them ahead of it.
Assay: solvent given as SMILES

SMILES: CCCCCCCCCCOc1cc(OCCCCCCCCCC)cc(C2=C3C(C)=CC(/C=C/c4ccc(OC)cc4)=[N+]3[B-](F)(F)n3c(/C=C/c4ccc(OC)cc4)cc(C)c32)c1
absorption maximum (in ClC(Cl)Cl): 645 nm

SMILES: CC1(C)c2ccccc2N(c2ccc(-c3nnc(-c4ccc(N5c6ccccc6C(C)(C)c6ccccc65)cc4)o3)cc2)c2ccccc21
absorption maximum (in Cc1ccccc1): 360 nm

SMILES: CCCCC(CC)CN1C(=O)C2=C(c3ccc(-c4ccc(C5=C6C(C)=CC(C)=[N+]6[B-](F)(F)n6c(C)cc(C)c65)cc4)s3)N(CC(CC)CCCC)C(=O)C2=C1c1cccs1 (configuration not stated)
absorption maximum (in Cc1ccccc1): 580 nm

SMILES: CCC1=C(C)C2=Cc3ccccc3B(O)N2C1=O
absorption maximum (in CC#N): 358 nm | absorption maximum (in CCCCCC): 378 nm | absorption maximum (in CO): 359 nm | absorption maximum (in CS(C)=O): 361 nm | absorption maximum (in ClC(Cl)Cl): 362 nm

SMILES: COc1ccc(-c2cc3c(ccc(=O)n3C)s2)cc1
absorption maximum (in CC#N): 376 nm | absorption maximum (in ClCCl): 378 nm

SMILES: CCN(CC)c1ccc(-c2ccc(-c3nc(C#N)c4ccccc4n3)s2)cc1
absorption maximum (in CC#N): 397 nm | absorption maximum (in Cc1ccccc1): 402 nm

SMILES: Nc1ccc2c(c1)Cc1ccccc1-2
absorption maximum (in C1CCCCC1): 318 nm | absorption maximum (in C1COCCO1): 322 nm | absorption maximum (in CC#N): 325 nm | absorption maximum (in CC(C)O): 317 nm | absorption maximum (in CCCCCC): 318 nm | absorption maximum (in CCCCCCC): 317 nm | absorption maximum (in CCO): 317 nm | absorption maximum (in CCOC(C)=O): 325 nm | absorption maximum (in CCOCC): 318 nm | absorption maximum (in CO): 317 nm | absorption maximum (in ClCCl): 319 nm | absorption maximum (in O): 315 nm

SMILES: C(S/C=C/c1ccc(/C=C/SC=C(c2ccccc2)c2ccccc2)cc1)=C(c1ccccc1)c1ccccc1
absorption maximum (in ClCCl): 366 nm

SMILES: S=P1(c2ccccc2)C(c2ccccc2)=Cc2cc3ccccc3cc21 (configuration not stated)
absorption maximum (in ClCCl): 387 nm

SMILES: CN(C)c1ccc(C#Cc2ccc(C=O)cc2)cc1
absorption maximum (in C1CCCCC1): 381.5 nm | absorption maximum (in C1CCOC1): 379.51 nm | absorption maximum (in C1COCCO1): 375.01 nm | absorption maximum (in CC1CCCO1): 382 nm | absorption maximum (in CC#N): 375.01 nm | absorption maximum (in CC(C)=O): 388 nm | absorption maximum (in CC(C)CC(C)(C)C): 383.49 nm | absorption maximum (in CC(C)O): 380.5 nm | absorption maximum (in CCCCCCCCCCCCCCCC): 383 nm | absorption maximum (in CCCCCCCCCCCCCCCCCl): 390 nm | absorption maximum (in CCOC(C)=O): 375.01 nm | absorption maximum (in CCOCC): 372.49 nm | absorption maximum (in CN(C)C=O): 379.51 nm | absorption maximum (in CO): 380.5 nm | absorption maximum (in CS(C)=O): 387 nm | absorption maximum (in Cc1ccccc1): 381.5 nm

SMILES: c1ccc2c(c1)c1ccccc1c1ncncc21
absorption maximum (in ClCCl): 346 nm

SMILES: Cc1ccc(N(c2ccc(C)cc2)c2ccc(-c3cc4c(cc(-c5ccc(N(c6ccc(C)cc6)c6ccc(C)cc6)cc5)c5nsnc54)c4nsnc34)cc2)cc1
absorption maximum (in Cc1ccccc1): 520 nm | absorption maximum (in ClCCl): 518 nm

SMILES: F[B-]1(F)n2cccc2C(c2ccccc2)=C2C=CC=[N+]21
absorption maximum (in Cc1ccccc1): 503 nm | absorption maximum (in ClCCl): 500 nm

SMILES: CCOC(=O)c1ccccc1-c1c2ccc(=[N+](CC)CC)cc-2oc2c1c(=O)oc1cc3c(cc12)CCCN3C
absorption maximum (in CCO): 602 nm | absorption maximum (in ClC(Cl)Cl): 608 nm | absorption maximum (in O): 602 nm

SMILES: CC1(C)CC(=O)C2=C(C1)Oc1ccc3ccccc3c1C2c1ccccn1 (configuration not stated)
absorption maximum (in C1CCOC1): 275 nm | absorption maximum (in C1COCCO1): 274 nm | absorption maximum (in CC#N): 275 nm | absorption maximum (in CCCCCCC): 274 nm | absorption maximum (in CCO): 274 nm | absorption maximum (in CO): 275 nm | absorption maximum (in O): 264 nm

SMILES: c1ccc(C2(c3ccccc3)c3ccccc3N(c3ccc(-c4nc([C@]56CC7CC(C[C@@H](C7)C5)C6)nc([C@]56C[C@H]7C[C@@H](C[C@H](C7)C5)C6)n4)cc3)c3ccccc32)cc1
absorption maximum (in Cc1ccccc1): 367.02 nm

SMILES: c1ccc(-c2nc(-c3ccccc3)nc(-c3ccc(-n4c5ccccc5c5cc(-c6ccc7sc8ccccc8c7c6)ccc54)cc3)n2)cc1
absorption maximum (in Cc1ccccc1): 370 nm

SMILES: N#CC(C#N)=C(/C=C/c1cn(-c2ccccc2)nc1-c1ccccc1)c1ccccc1
absorption maximum (in C1CCOC1): 402 nm | absorption maximum (in C1COCCO1): 399 nm | absorption maximum (in CCO): 402 nm | absorption maximum (in CCOC(C)=O): 399 nm | absorption maximum (in CN(C)C=O): 405 nm | absorption maximum (in CO): 397 nm | absorption maximum (in CS(C)=O): 409 nm | absorption maximum (in Cc1ccccc1): 405 nm | absorption maximum (in ClC(Cl)Cl): 406 nm | absorption maximum (in ClCCl): 403 nm

SMILES: CCC1=C(C2=C(C3=C(CC)S(=O)(=O)c4cc(-c5ccc(CO)cc5)ccc43)C(F)(F)C(F)(F)C2(F)F)c2ccc(-c3ccc(CO)cc3)cc2S1(=O)=O
absorption maximum (in C1COCCO1): 340 nm

SMILES: Oc1ccc2ncccc2c1
absorption maximum (in CC#N): 331 nm | absorption maximum (in CCCC#N): 333 nm | absorption maximum (in CO): 331 nm | absorption maximum (in Cc1ccccc1): 332 nm | absorption maximum (in ClCCl): 330 nm

SMILES: CN(C)c1nc(N(C)C)c2nc(C#N)n(Cc3ccccc3)c2n1
absorption maximum (in C1COCCO1): 345 nm | absorption maximum (in CC#N): 344 nm | absorption maximum (in CO): 342 nm | absorption maximum (in ClCCl): 348 nm

SMILES: CCCCCCn1c(=O)c2c3[nH]c4ccccc4oc3c3c(=O)n(CCCCCC)c(=O)c3c2c1=O
absorption maximum (in ClCCl): 454 nm

SMILES: c1ccc(-c2nc(-c3ccccc3)c(-c3ccccc3)o2)cc1
absorption maximum (in Cc1ccccc1): 311 nm

SMILES: Nc1n[n+]([O-])c2ccccc2[n+]1[O-]
absorption maximum (in CC#N): 477 nm | absorption maximum (in O): 457 nm

SMILES: Cc1cc(N2c3ccccc3C3(c4ccccc4-c4ccccc43)c3ccccc32)c(C)cc1-c1nc(-c2ccccc2)nc(-c2ccccc2)n1
absorption maximum (in Cc1ccccc1): 382.89 nm

SMILES: c1ccc(-c2nnc(-c3cc(-n4c5ccccc5c5ccccc54)c(-n4c5ccccc5c5ccccc54)cc3-c3nnc(-c4ccccc4)o3)o2)cc1
absorption maximum (in ClCCl): 361 nm

SMILES: c1ccc(N(c2ccccc2)c2ccc(N(c3ccccc3)c3ccc4ccc5c(N(c6ccccc6)c6ccc(N(c7ccccc7)c7ccccc7)cc6)ccc6ccc3c4c65)cc2)cc1
absorption maximum (in ClCCl): 438 nm

SMILES: O=P1(c2ccccc2)c2cc(N3c4ccccc4Oc4ccccc43)ccc2-c2ccc(N3c4ccccc4Oc4ccccc43)cc21
absorption maximum (in Cc1ccccc1): 418 nm

SMILES: C#CCN1C(=O)/C(=C/c2cc(OC(C)C)ccc2OC(C)C)N=C1C
absorption maximum (in C1COCCO1): 396 nm | absorption maximum (in CC#N): 395 nm | absorption maximum (in CC(C)=O): 394 nm | absorption maximum (in CCCCCC): 392 nm | absorption maximum (in CCCCO): 400 nm | absorption maximum (in CCCO): 400 nm | absorption maximum (in CCO): 399 nm | absorption maximum (in CCOC(C)=O): 393 nm | absorption maximum (in CN(C)C=O): 399 nm | absorption maximum (in CO): 398 nm | absorption maximum (in CS(C)=O): 401 nm

More lines, now with the values ahead:

absorption maximum (in C1CCOC1): 348.89 nm
SMILES: COC(=O)C1(C(=O)OC)Cc2c(C#Cc3ccc(OC)cc3)c(-c3ccc(OC)cc3)c3c(-c4ccccc4)c(-c4ccccc4)c(-c4ccccc4)c(-c4ccccc4)c3c2C1

absorption maximum (in ClCCl): 501 nm
SMILES: N#CC1N=c2cc3c4c(cccc4c2=NC1C#N)C(c1ccccc1)=C(c1ccccc1)O3 (configuration not stated)

absorption maximum (in CC#N): 440 nm
SMILES: Cn1cc(-c2nc3ccccc3nc2/C=C/N2CCCC2)c2ccccc21

absorption maximum (in ClCCl): 540 nm
SMILES: CCCN1c2ccccc2Sc2cc(C#CC3=C4C=CC=[N+]4[B-](F)(F)n4cccc43)ccc21

absorption maximum (in ClCCl): 322 nm
SMILES: c1ccc(N(c2ccccc2)c2ccc(-n3ccc4cc(-c5cccc6c5-c5ccccc5C6(c5ccccc5)c5ccccc5)ccc43)cc2)cc1

absorption maximum (in CCO): 381 nm | absorption maximum (in ClCCl): 384 nm
SMILES: O=Cc1cnc(-c2c3ccccc3cc3ccccc23)nc1

absorption maximum (in ClCCl): 430 nm
SMILES: CSc1nccc(/C=C/c2ccc(N(c3ccccc3)c3ccc(/C=C/c4ccnc(SC)n4)cc3)cc2)n1

absorption maximum (in O): 419 nm
SMILES: Cc1ccc2c(c1)c(=O)c1ccccc1n2CCCCCC(=O)O

absorption maximum (in CCO): 439 nm
SMILES: CC(C)(C)OC(=O)NCCCC(=O)OCc1ccc2c3cccc4cccc(c5cccc1c52)c43

absorption maximum (in ClCCl): 349 nm
SMILES: CCCCn1c2ccc(C#N)cc2c2cc(C#N)ccc21

absorption maximum (in C1CCOC1): 445 nm
SMILES: Cc1cc(C)c([B-]2(c3c(C)cc(C)cc3C)[O+]=P(c3ccccc3)(c3ccccc3)c3cc(-c4ccc(N(C)C)cc4)sc3-c3sc(-c4ccc(N(C)C)cc4)cc32)c(C)c1

absorption maximum (in ClCCl): 352 nm
SMILES: CCCCn1c2ccc(C#N)cc2c2cc(C#N)cc(-c3ccc(N(c4ccccc4)c4ccccc4)cc3)c21

absorption maximum (in ClCCl): 327 nm
SMILES: C(=C\c1nc(/C=C/c2ccccc2)nc(/C=C/c2ccccc2)n1)/c1ccccc1

absorption maximum (in O): 413 nm
SMILES: CN(C)c1ccc2c(c1)C(C)(C)C(=O)C=C2

absorption maximum (in C1CCOC1): 471 nm
SMILES: CCCCCOc1cc2oc(=O)c3c4ccc(N)cc4c4ccc5cccc6c(c1)c2c3c4c56

absorption maximum (in CCCCCCCCCCCCCC): 409 nm
SMILES: COc1ccsc1-c1ccc(-c2ccc(-c3sccc3OC)s2)s1

absorption maximum (in CC#N): 344 nm
SMILES: COc1ccc(-n2nc(C#N)c(N3CCCC3)n2)cc1OC

absorption maximum (in ClCCl): 366 nm
SMILES: CCCCc1cc2c3c(c1)-c1ccccc1B(c1c(C)cc(C)cc1C)N3B(c1c(C)cc(C)cc1C)c1ccccc1-2

absorption maximum (in ClCCl): 355 nm
SMILES: C(=C\c1ncc(-c2ccc(OCc3ccccc3)c(OCc3ccccc3)c2)o1)/c1cccc(N2CCN(c3ccccc3)CC2)c1

absorption maximum (in C1COCCO1): 342 nm | absorption maximum (in CC#N): 340 nm | absorption maximum (in CCCCO): 350 nm | absorption maximum (in CCCO): 350 nm | absorption maximum (in CCO): 349 nm | absorption maximum (in CCOC(C)=O): 343 nm | absorption maximum (in CO): 346 nm
SMILES: Cc1cnc(NC(=O)C2=C(O)c3ccccc3S(=O)(=O)N2C)s1

absorption maximum (in ClCCl): 339 nm
SMILES: CC(C)(C)c1ccc(-c2cnc3cccc(-c4ccccc4)n23)cc1

absorption maximum (in CCCCCC): 346 nm | absorption maximum (in CO): 345 nm | absorption maximum (in ClCCl): 348 nm
SMILES: CC(C)(C)c1ccc2ccc3c(C(C)(C)C)ccc4ccc1c2c43

absorption maximum (in C1CCCCC1): 315 nm | absorption maximum (in CO): 315 nm
SMILES: C/C(=C\c1ccc(C)cc1)c1nc2ccccc2o1

absorption maximum (in ClCCl): 308 nm
SMILES: N#Cc1ccc(-n2c(-c3ccc(-c4ccc(N(c5ccccc5)c5ccccc5)cc4)s3)nc3c4ccccc4c4ccccc4c32)c2ccccc12

absorption maximum (in CC#N): 640 nm
SMILES: F[B-]1(F)n2c(c(Sc3ccccc3)c3c2-c2ccccc2CC3)C=C2C(Sc3ccccc3)=C3CCc4ccccc4C3=[N+]21

absorption maximum (in C1CCCCC1): 392 nm | absorption maximum (in CC#N): 393 nm | absorption maximum (in CO): 392 nm | absorption maximum (in ClCCl): 396 nm
SMILES: COc1ccc2c3c(OC)c4ccccc4c(OC)c3n(C)c2c1

From the Deep4Chem optical property database
